The values below come from patent US20230331715A1, “SPIRO[3.3]HEPTANE DERIVATIVES FOR THE TREATMENT AND PROPHYLAXIS OF HEPATITIS B VIRUS INFECTION” (priority 2020, published 2023).

The structures appear in SMILES notation.

What all share (format): cell-based
One data set relates to HBsAg. In words: PHH HBV natural infection assay, HBsAg (alphalisa). The conditions noted are these: Hepatitis B virus, 72 h, read-out: HBsAg IC50, HBV-infected PHH, culture supernatant, compound refreshed two times with 72-hour interval, alphalisa. As for the experimental part:
(§1) Detailed procedures regarding primary human hepatocyte (PHH) HBV natural infection assay are described as below. One tube of frozen PHH (10 million cells) is thawed in 37° C. water bath and then transferred to 20 mL of PHH thawing medium (Sigma, InVitroGRO HT Medium, Cat. S03319) with gently mixing. The cells were then centrifuged at […] for 5 min, the supernatant was discarded and the tube was refilled with 25 mL of PHH plating medium (Sigma, InVitroGRO CP Medium, Cat. S03317). The tube was shaken very gently to re-suspend all cells, and then 50 µl of cells were transferred to each well 384-well collagen I coated plate with appropriate liquid handling equipment, e.g. Integra VIAFLO384 or Agilent Bravo. The cells were then cultured for 24 hours in a cell incubator. For HBV infection, after PHH attachment on the culture plate, the plating medium was removed and replenished with PHH culture medium containing HBV virus. The PHH culture medium was prepared with Dulbecco’s Modified Eagle Medium (DMEM)/F12 (1: 1 in volume ratio) containing 10% fetal bovine serum (Gibco, Cat. 10099141), 5 ng/mL human epidermal growth factor (Gibco, Cat.PHG0311L), 20 ng/mL dexamethasone (Sigma, Cat.D4902-100mg), 250 ng/mL human recombinant insulin (Gibco, Cat.41400045) and 100 U/mL penicillin. HBV virus at 200 genome equivalent (GE) per cell with 4% PEG8000 (Sigma, Cat.P1458) containing culture medium were added to the PHH culture medium for infection. The cells were then cultured for 24 hours in cell incubator. Then the cell culture supernatant was removed. The HBV-infected PHH were cultured with sandwich culture method with PHH culture medium containing 1% DMSO and 0.25 mg/mL matrix gel for 72 hours. The supernatant was then refreshed with PHH culture medium containing different concentrations of testing compounds for two times with 72-hour interval. At the end of treatment, the supernatant was collected for viral markers measurements, including HBsAg, HBeAg, HBV DNA and cytotoxicity. HBsAg and HBeAg were detected using alphalisa method using their specific antibodies. For HBV DNA detection, HBV DNA Quantitative Fluorescence Diagnostic Kit (Sansure Biotech Inc.) was used following the manufacture’s protocol. Cytotoxicity was determined using Cell Counting Kit-8 (CCK8, Dojindo Molecular Technologies, Inc.).
(§2) The compounds of the present invention were tested for their capacity to inhibit HBsAg and HBeAg as described herein.
For orientation: Alpha assays give light when donor and acceptor beads are brought close together.

Another data set relates to HBeAg. Kind of data set: PHH HBV natural infection assay, HBeAg (alphalisa). The conditions noted are these: Hepatitis B virus, 72 h, read-out: HBeAg IC50, HBV-infected PHH, culture supernatant, compound refreshed two times with 72-hour interval, alphalisa. As for the experimental part: as §1, §2
Data set [1] can be described thus: Cytotoxicity in PHH natural infection assay (Cell Counting Kit-8). The conditions noted are these: human; HBV-infected PHH, CCK8, compound refreshed two times with 72-hour interval. How it is done: as §1
A general note: Formazan colour is commonly taken as a measure of viable cells.

As usually defined, the IC50 is the concentration that gives 50% inhibition. By CC50 is commonly meant the concentration at which the toxic effect on the cells reaches its halfway point. Read a high CC50 as better tolerance by the cells. In the case of `O=C(NC1CC2(C1)CC(c1nc3cc(Cl)ccc3s1)C2)C1CCS(=O)(=O)N1` (stereo not drawn) [Example 34, N-[6-(5-chloro-1,3-benzothiazol-2-yl)spiro[3.3]heptan-2-yl]-1,1-dioxo-1,2-thiazolidine-3-carboxamide], the IC50 with HBsAg is 7.11 µM; in the data set on HBeAg, 5.67 µM. This molecule also gave a CC50 at 144 h in data set [1] greater than 10 µM.
For `O=C(CN1CCCCS1(=O)=O)NC1CC2(C1)CC(c1nc3cc(Cl)ccc3s1)C2` (stereo not drawn) [Example 35, N-[6-(5-chloro-1,3-benzothiazol-2-yl)spiro[3.3]heptan-2-yl]-2-(1,1-dioxothiazinan-2-yl)acetamide], the IC50 in the data set with HBsAg stood at 3.18 µM; with HBeAg it was 2.98 µM. The CC50 at 144 h in data set [1] was greater than 10 µM.
For `CS(=O)(=O)c1cc(C(=O)NC2CC3(C2)CC(c2nc4cc(Cl)ccc4s2)C3)ccn1` (stereo not drawn) [Example 36, N-[6-(5-chloro-1,3-benzothiazol-2-yl)spiro[3.3]heptan-2-yl]-2-methylsulfonyl-pyridine-4-carboxamide], in that order: 1.08 µM, 0.86 µM and greater than 50 µM.
The like results for `O=C(NC1CC2(C1)CC(c1nc3ccc(Cl)cc3s1)C2)c1ccnc(S(=O)(=O)C2CC2)c1` (stereo not drawn) [Example 37, N-[6-(6-chloro-1,3-benzothiazol-2-yl)spiro[3.3]heptan-2-yl]-2-cyclopropylsulfonyl-pyridine-4-carboxamide] were, in that order, 0.23 µM, 0.2 µM and 10.1 µM.
For `CC(C)(C)S(=O)(=O)c1cc(C(=O)NC2CC3(C2)CC(c2nc4cc(Cl)ccc4s2)C3)ccn1` (stereo not drawn) [Example 38, 2-tert-butylsulfonyl-N-[6-(5-chloro-1,3-benzothiazol-2-yl)spiro[3.3]heptan-2-yl]pyridine-4-carboxamide], in that order: 1.95 µM, 1.49 µM and 30.8 µM.
For `O=C(NC1CC2(C1)CC(c1nc3cc(Cl)ccc3s1)C2)c1ccnc(S(=O)(=O)CC2CC2)c1` (stereo not drawn) [Example 39, N-[6-(5-chloro-1,3-benzothiazol-2-yl)spiro[3.3]heptan-2-yl]-2-(cyclopropylmethylsulfonyl)pyridine-4-carboxamide], the IC50 in the data set with HBsAg came out at 0.79 µM; in the data set with HBeAg, 0.34 µM. In addition, the CC50 at 144 h in data set [1] is greater than 10 µM.
For `CS(=N)(=O)c1cc(C(=O)NC2CC3(C2)CC(c2nc4cc(Cl)ccc4s2)C3)ccn1` (stereo not drawn) [Example 40, N-[6-(5-chloro-1,3-benzothiazol-2-yl)spiro[3.3]heptan-2-yl]-2-(methylsulfonimidoyl)pyridine-4-carboxamide], in that order: 2.53 µM, 2.41 µM and greater than 10 µM.
The like results for `N=S(=O)(c1cc(C(=O)NC2CC3(C2)CC(c2nc4cc(Cl)ccc4s2)C3)ccn1)C1CC1` (stereo not drawn) [Example 41, N-[6-(5-chloro-1,3-benzothiazol-2-yl)spiro[3.3]heptan-2-yl]-2-(cyclopropylsulfonimidoyl)pyridine-4-carboxamide] were, in that order, 0.9 µM, 0.67 µM and greater than 10 µM.
With `COc1cc(C(=O)NC2CC3(C2)CC(c2nc4cc(Cl)ccc4s2)C3)ccn1` (stereo not drawn) [Example 42, N-[6-(5-chloro-1,3-benzothiazol-2-yl)spiro[3.3]heptan-2-yl]-2-methoxy-pyridine-4-carboxamide], the IC50 came out at 3.12 µM in the data set on HBsAg and 2.67 µM in the data set with HBeAg. Also, the CC50 at 144 h in data set [1] is greater than 10 µM.
For `CC(C)Oc1cc(C(=O)NC2CC3(C2)CC(c2nc4cc(Cl)ccc4s2)C3)ccn1` (stereo not drawn) [Example 43, N-[6-(5-chloro-1,3-benzothiazol-2-yl)spiro[3.3]heptan-2-yl]-2-isopropoxy-pyridine-4-carboxamide], in that order: 3.23 µM, 2.86 µM and greater than 10 µM.
On to `CNc1cc(C(=O)NC2CC3(C2)CC(c2nc4cc(Cl)ccc4s2)C3)ccn1` (stereo not drawn) [Example 44, N-[6-(5-chloro-1,3-benzothiazol-2-yl)spiro[3.3]heptan-2-yl]-2-(methylamino)pyridine-4-carboxamide], for which the IC50 with HBsAg came out at 3.24 µM; with HBeAg, 3.18 µM. Besides, the CC50 at 144 h in data set [1] is greater than 10 µM.
For `O=C(NC1CC2(C1)CC(c1nc3cc(Cl)ccc3s1)C2)c1ccnc(NC2CC2)c1` (stereo not drawn) [Example 45, N-[6-(5-chloro-1,3-benzothiazol-2-yl)spiro[3.3]heptan-2-yl]-2-(cyclopropylamino)pyridine-4-carboxamide], in that order: 6.08 µM, 5.18 µM and greater than 10 µM.
The like results for `CN(C)c1cc(C(=O)NC2CC3(C2)CC(c2nc4cc(Cl)ccc4s2)C3)ccn1` (stereo not drawn) [Example 46, N-[6-(5-chloro-1,3-benzothiazol-2-yl)spiro[3.3]heptan-2-yl]-2-(dimethylamino)pyridine-4-carboxamide] were, in that order, 4.2 µM, 3.35 µM and greater than 10 µM.
As for `CCN(C)c1cc(C(=O)NC2CC3(C2)CC(c2nc4cc(Cl)ccc4s2)C3)ccn1` (stereo not drawn) [Example 47, N-[6-(5-chloro-1,3-benzothiazol-2-yl)spiro[3.3]heptan-2-yl]-2-[ethyl(methyl)amino]pyridine-4-carboxamide], the IC50 in the data set with HBsAg was determined as 5.85 µM; in the data set with HBeAg it was 4.8 µM. In data set [1], this molecule displayed a CC50 at 144 h greater than 10 µM.
For `CCN(CC)c1cc(C(=O)NC2CC3(C2)CC(c2nc4cc(Cl)ccc4s2)C3)ccn1` (stereo not drawn) [Example 48, N-[6-(5-chloro-1,3-benzothiazol-2-yl)spiro[3.3]heptan-2-yl]-2-(diethylamino)pyridine-4-carboxamide], in that order: 5.92 µM, 4.96 µM and greater than 10 µM.
For `CC(C)N(C)c1cc(C(=O)NC2CC3(C2)CC(c2nc4cc(Cl)ccc4s2)C3)ccn1` (stereo not drawn) [Example 49, N-[6-(5-chloro-1,3-benzothiazol-2-yl)spiro[3.3]heptan-2-yl]-2-[isopropyl(methyl)amino]pyridine-4-carboxamide], in that order: 3.14 µM, 2.38 µM and greater than 10 µM.
For `O=C(NC1CC2(C1)CC(c1nc3cc(Cl)ccc3s1)C2)c1ccnc(N2CCCC2)c1` (stereo not drawn) [Example 50, N-[6-(5-chloro-1,3-benzothiazol-2-yl)spiro[3.3]heptan-2-yl]-2-pyrrolidin-1-yl-pyridine-4-carboxamide], in that order: 9.95 µM, 9.63 µM and greater than 10 µM.
Consider `O=C(NC1CC2(C1)CC(c1nc3cc(Cl)ccc3s1)C2)c1ccnc(N2CCCCC2)c1` (stereo not drawn) [Example 51, N-[6-(5-chloro-1,3-benzothiazol-2-yl)spiro[3.3]heptan-2-yl]-2-(1-piperidyl)pyridine-4-carboxamide], for which the IC50 turned out to be 5.51 µM in the data set on HBsAg and 4.35 µM with HBeAg. Also, in data set [1], the CC50 at 144 h is greater than 10 µM.
For `O=C(NC1CC2(C1)CC(c1nc3cc(Cl)ccc3s1)C2)c1ccnc(N2CCOCC2)c1` (stereo not drawn) [Example 52, N-[6-(5-chloro-1,3-benzothiazol-2-yl)spiro[3.3]heptan-2-yl]-2-morpholino-pyridine-4-carboxamide], in that order: 2.59 µM, 2.79 µM and greater than 10 µM.
